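96-well plates; 48 h exposure; 5 concentrations. Endpoints by linear interpolation between flanking doses. Not reached: highest tested concentration assigned. Here, GI50 denotes the concentration required for 50% inhibition of growth.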 Activity calls are given as the source filed them. Cut-off read from the data, not from the text of the source: active = GI50 up to about 1.1 µM and inactive = higher.
Key:
Assay in all cases: inhibition of tumour cell growth, NCI panel, 48 h
[1] = tested on: A549
[2] = tested on: DU-145
[3] = tested on: HCT-15
[4] = tested on: HOP-62
[5] = tested on: M14
[6] = tested on: MDA-MB-231
[7] = tested on: MDA-MB-435
[8] = tested on: MDA-N
[9] = tested on: Malme-3M
[10] = tested on: NCI-H522
[11] = tested on: OVCAR-3
[12] = tested on: OVCAR-8
[13] = tested on: RPMI-8226
[14] = tested on: RXF 393
[15] = tested on: SF-295
[16] = tested on: T47D

Row | SMILES | GI50 [1] | GI50 [2] | GI50 [3] | GI50 [4] | GI50 [5] | GI50 [6] | GI50 [7] | GI50 [8] | GI50 [9] | GI50 [10] | GI50 [11] | GI50 [12] | GI50 [13] | GI50 [14] | GI50 [15] | GI50 [16]
1 | C/C(=N\NC(=O)c1ccncc1)c1ccc2ccccc2c1O | 1.77 µM (inactive) | 2.25 µM (inactive) | 0.419 µM | 4.37 µM (inactive) | 2.08 µM (inactive) | 5.08 µM (inactive) | 8.99 µM (inactive) | 4.41 µM (inactive) | 1.19 µM (inactive) | 0.869 µM (active) | 0.29 µM (active) | 2.18 µM (inactive) | 4.33 µM (inactive) | 3.08 µM (inactive) | 1.77 µM (inactive) | 1.01 µM (active)
2 | N=C1/C(=C/c2ccc(F)cc2)C(=O)N=C2SC=NN12 | > 100 µM (inactive) | > 100 µM (inactive) | > 100 µM | > 100 µM (inactive) | > 100 µM (inactive) | > 100 µM (inactive) | 83.4 µM (inactive) | 83.2 µM (inactive) | > 100 µM (inactive) | > 100 µM (inactive) | > 100 µM (inactive) | > 100 µM (inactive) | > 100 µM (inactive) | 31.5 µM (inactive) | > 100 µM (inactive) | > 100 µM (inactive)
3 | N#Cc1ccsc1Nc1ccccc1[N+](=O)[O-] | > 100 µM (inactive) | > 100 µM (inactive) | > 100 µM | 38.1 µM (inactive) | > 100 µM (inactive) | 31.3 µM (inactive) | > 100 µM (inactive) | > 100 µM (inactive) | > 100 µM (inactive) | 63.7 µM (inactive) | > 100 µM (inactive) | > 100 µM (inactive) | > 100 µM (inactive) | 86.9 µM (inactive) | 64.1 µM (inactive) | > 100 µM (inactive)
4 | Cc1ccc(C(=O)N/N=C2/C(=O)c3c4ccccc4cc4cccc2c34)cc1 | 32.4 µM (inactive) | 3.44 µM (inactive) | 20.6 µM | 16.2 µM (inactive) | 31.4 µM (inactive) | 37 µM (inactive) | 23.9 µM (inactive) | 37.8 µM (inactive) | 18.8 µM (inactive) | 18 µM (inactive) | 22.5 µM (inactive) | 22.4 µM (inactive) | 22 µM (inactive) | 12.6 µM (inactive) | 19.5 µM (inactive) | 13.4 µM (inactive)
5 | CCOC(=O)c1c(N2CCCC2)[nH]c(=O)c(C(c2cccs2)c2c(O)c(C(=O)OCC)c(N3CCCC3)[nH]c2=O)c1O | > 100 µM (inactive) | > 100 µM (inactive) | > 100 µM | > 100 µM (inactive) | > 100 µM (inactive) | > 100 µM (inactive) | > 100 µM (inactive) | > 100 µM (inactive) | > 100 µM (inactive) | > 100 µM (inactive) | > 100 µM (inactive) | > 100 µM (inactive) | 54.6 µM (inactive) | > 100 µM (inactive) | > 100 µM (inactive) | > 100 µM (inactive)
6 | O=c1cc(-c2ccccc2)nc2[nH]ccn12 | > 10 µM (inactive) | > 10 µM (inactive) | > 10 µM | > 10 µM (inactive) | > 10 µM (inactive) | > 10 µM (inactive) | > 10 µM (inactive) | > 10 µM (inactive) | > 10 µM (inactive) | > 10 µM (inactive) | > 10 µM (inactive) | > 10 µM (inactive) | > 10 µM (inactive) | > 10 µM (inactive) | > 10 µM (inactive) | > 10 µM (inactive)
7 | O=S(=O)(O)Nc1ccc(-c2nc3ccccc3s2)cc1Cl | > 100 µM (inactive) | > 100 µM (inactive) | > 100 µM | > 100 µM (inactive) | > 100 µM (inactive) | > 100 µM (inactive) | > 100 µM (inactive) | > 100 µM (inactive) | > 100 µM (inactive) | > 100 µM (inactive) | > 100 µM (inactive) | > 100 µM (inactive) | > 100 µM (inactive) | > 100 µM (inactive) | > 100 µM (inactive) | > 100 µM (inactive)
8 | C/C1=C\C=C(\C(C)C)CC/C(C(=O)O)=C\CC/C(C)=C/CC1 [NEOCROTOCEMBRANEIC ACID] | 30.2 µM (inactive) | 33.1 µM (inactive) | 21.4 µM | 22.8 µM (inactive) | 29 µM (inactive) | 20.7 µM (inactive) | 23.6 µM (inactive) | 28.8 µM (inactive) | 23.2 µM (inactive) | 19.3 µM (inactive) | 16.6 µM (inactive) | 31.2 µM (inactive) | 19.3 µM (inactive) | 20.7 µM (inactive) | 20 µM (inactive) | 34.4 µM (inactive)
9 | COc1ccc(-c2c(-c3ccccc3)c(C)nc3[nH]c(=S)[nH]c(=S)c23)cc1OC | 30.3 µM (inactive) | 44.4 µM (inactive) | 30.9 µM | 33.1 µM (inactive) | 36.1 µM (inactive) | 26.9 µM (inactive) | 26.9 µM (inactive) | 30.1 µM (inactive) | 30.8 µM (inactive) | 27.1 µM (inactive) | 20.3 µM (inactive) | 42 µM (inactive) | 21.6 µM (inactive) | 35.8 µM (inactive) | 42.1 µM (inactive) | 38.3 µM (inactive)
10 | CSc1nc(NCc2ccccc2)c2cnn(COCCO)c2n1 | 43.9 µM (inactive) | 64.3 µM (inactive) | – | > 100 µM (inactive) | 67.8 µM (inactive) | 55.6 µM (inactive) | 27.4 µM (inactive) | 46.9 µM (inactive) | 42.9 µM (inactive) | 28.6 µM (inactive) | 57.8 µM (inactive) | 42.7 µM (inactive) | 38.5 µM (inactive) | 29 µM (inactive) | 35.5 µM (inactive) | 53.7 µM (inactive)
11 | O=c1c2c3c(sc2nc2n1N=C(c1ccc([N+](=O)[O-])cc1)CS2)CCCC3 | > 100 µM (inactive) | > 100 µM (inactive) | > 100 µM | > 100 µM (inactive) | – | > 100 µM (inactive) | > 100 µM (inactive) | > 100 µM (inactive) | > 100 µM (inactive) | > 100 µM (inactive) | > 100 µM (inactive) | > 100 µM (inactive) | > 100 µM (inactive) | > 100 µM (inactive) | > 100 µM (inactive) | > 100 µM (inactive)
12 | COc1cc(C=O)cc(/C=N/c2ccc(Br)cc2)c1O | 4.85 µM (inactive) | 11.3 µM (inactive) | 2.15 µM | 11.7 µM (inactive) | 1.66 µM (inactive) | 4.44 µM (inactive) | 1.05 µM (active) | 3.72 µM (inactive) | 4.04 µM (inactive) | 0.995 µM (active) | 13.5 µM (inactive) | 2.86 µM (inactive) | 3.33 µM (inactive) | 4.43 µM (inactive) | 2.52 µM (inactive) | 1.15 µM (inactive)
13 | Cc1ccc(P(c2ccc(C)cc2)c2ccc(C)cc2)cc1 | 14.6 µM (inactive) | 16.5 µM (inactive) | 20.2 µM | – | 19.3 µM (inactive) | 25.9 µM (inactive) | 19.1 µM (inactive) | 21.9 µM (inactive) | 18.3 µM (inactive) | 11.4 µM (inactive) | 15.7 µM (inactive) | 18 µM (inactive) | 6.05 µM (inactive) | 15.5 µM (inactive) | 21.4 µM (inactive) | 16.3 µM (inactive)

Reference: ChEMBL document CHEMBL1201862, “PubChem BioAssay data set” (2004)
